# Assay results: US20230183239A1, “ECTONUCLEOTIDE PYROPHOSPHATASE-PHOSPHODIESTERASE 1 (ENPP-1) INHIBITORS AND USES THEREOF” (AbbVie Inc., priority 2017, published 2023)
# Like-named read-outs stand apart in the source and are kept apart here.
# What was measured:
# Type in all cases: biochemical
# ENPP1 [1] = target: T1, ENPP1 (Homo sapiens, UniProt P22413); experiment: ENPP1 enzyme assay with cGAMP substrate (AMP-Glo); set-up: purchased R&D Systems; settings: for inhibition at 1 µM: read-out: cGAMP: % Inhibition at 1 µM
# T1 sequence (P22413 1-925): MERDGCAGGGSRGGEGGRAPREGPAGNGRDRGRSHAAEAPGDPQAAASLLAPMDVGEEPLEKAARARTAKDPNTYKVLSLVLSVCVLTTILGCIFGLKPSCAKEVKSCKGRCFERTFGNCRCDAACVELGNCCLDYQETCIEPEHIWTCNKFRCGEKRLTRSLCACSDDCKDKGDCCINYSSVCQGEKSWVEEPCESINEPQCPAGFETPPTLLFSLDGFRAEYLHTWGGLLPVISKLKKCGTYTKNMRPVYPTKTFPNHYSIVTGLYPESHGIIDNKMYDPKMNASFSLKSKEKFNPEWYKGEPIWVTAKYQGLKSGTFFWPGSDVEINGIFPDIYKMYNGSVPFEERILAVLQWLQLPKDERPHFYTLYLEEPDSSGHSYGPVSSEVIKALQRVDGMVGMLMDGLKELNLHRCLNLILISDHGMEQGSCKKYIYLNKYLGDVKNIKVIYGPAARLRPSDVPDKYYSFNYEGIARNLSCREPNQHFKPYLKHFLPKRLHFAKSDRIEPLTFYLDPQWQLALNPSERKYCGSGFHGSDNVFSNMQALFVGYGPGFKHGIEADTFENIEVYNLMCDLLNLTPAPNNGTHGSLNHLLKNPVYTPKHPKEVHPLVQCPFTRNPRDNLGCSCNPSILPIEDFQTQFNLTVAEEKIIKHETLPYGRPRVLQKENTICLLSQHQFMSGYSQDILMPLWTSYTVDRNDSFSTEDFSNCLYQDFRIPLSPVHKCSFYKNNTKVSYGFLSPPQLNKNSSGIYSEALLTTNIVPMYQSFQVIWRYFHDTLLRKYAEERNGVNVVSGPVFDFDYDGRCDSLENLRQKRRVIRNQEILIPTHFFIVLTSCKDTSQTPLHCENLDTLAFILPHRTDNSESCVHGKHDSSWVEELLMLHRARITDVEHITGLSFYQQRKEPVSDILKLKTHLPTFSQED
# From the text: Example B1: ENPP1 Enzyme Assay With cGAMP Substrate
# Ectonucleotide pyrophosphatase/phosphodiesterase 1 (ENPP-1) is a transmembrane glycoprotein that hydrolyzes nucleotides and nucleotide derivatives with the formation of nucleoside-5’-monophosphates. […] The 5’-AMP formed from the reaction is detected using the AMP-Glo® Kit (Promega). The assay kit contains two reagents. The first reagent terminates the enzymatic reaction, removes ATP (using adenylyl cyclase), and converts 5’-AMP produced into ADP (using polyphosphate: AMP phosphotransferase). The second reagent converts ADP to ATP (using adenylate kinase) and generates light from ATP using the luciferin/luciferase reaction.
# Different concentrations of ENPP1 inhibitors are pre-incubated with 5 ng/well of human ENPP-1 enzyme (R&D Systems) for 15 minutes at 37° C. The reaction is initiated by adding 20 µM 2’3’-cGAMP and incubating for 30 minutes at 37° C. The final assay reaction mixture contains a buffer of 50 mM Tris pH 8.0, 250 mM NaCl, 0.5 mM CaCl2, 1 µM ZnCl2 and 1% DMSO. At the end of the incubation, the reaction is stopped by adding 12 µl of AMP-Glo reagent-1 and mixing the reaction uniformly for 5 minutes, followed by incubation at room temperature for one hour. Then 25 µl of AMP Glo reagent-2 is added to the reaction, mixed uniformly with a pipette, and incubated at room temperature for one hour to convert the ADP formed from reagent-1 to ATP and light. The generated light is measured in a Perkin Elmer Victor® instrument.
# (§1) The IC50 values for percent inhibition versus compound concentration are determined by fitting the inhibition curves using a four-parameter variable slope model in GraphPad Prism® software. Ki values are derived from the IC50 values using the Cheng-Prusoff equation: […]
# ENPP1 [2] = target: T1, ENPP1; experiment: Indirect quantitation of 2',3'-cGAMP hydrolysis (AMP-Glo Assay kit)
# ENPP1 [3] = target: T1, ENPP1; experiment: ENPP1 enzyme assay with TMP-pNP substrate; set-up: purchased R&D Systems; settings: read-out: TMP-pNP: % inhibition at 10 uM, 10 uM compound
# Experimental: Example B2: ENPP1 Enzyme Assay With TMP-pNP Substrate
# Ectonucleotide pyrophosphatase/phosphodiesterase 1 (ENPP-1) is a transmembrane glycoprotein that hydrolyzes nucleotides and nucleotide derivatives with the formation of nucleotide-5’-monophosphates. ENPP-1 hydrolyzes thymidine 5’monophosphate p-nitrophenyl ester (TMP-pNP) to nucleotide-5’-monophosphate and p-nitrophenol, which is a chromogenic product. The amount of p-nitrophenol product formed is measured using its absorbance at 405 nm, which is directly proportional to enzyme activity. Different concentrations of inhibitors are pre-incubated with 15 ng/well of human ENPP-1 enzyme (R&D Systems) for 15 minutes at 37° C. The reaction is initiated by adding 200 µM TMP-pNP and incubating for 10 minutes at 37° C. The final assay reaction mixture contains a buffer of 50 mM Tris pH 8.0, 250 mM NaCl, 0.5 mM CaCl2, 1 µM ZnCl2 and 1% DMSO. The amount of product formed is measured directly in a Tecan® spectrophotometer. Maximal activity control samples (containing enzyme, substrate, and buffer in the absence of ENPP1 inhibitors: MAX) and background control samples (containing enzyme, substrate, and buffer plus a fully inhibitory concentration (3 µM) of the reference ENPP1 Inhibitor, Example 333: MIN) are simultaneously evaluated in order to calculate the percent inhibition at each compound concentration as follows:
# as §1, with “curves (percent inhibition versus inhibitor concentration)” for “curves”
# ENPP1 [4] = target: T1, ENPP1; experiment: ENPP1 enzyme assay with AMP-pNP substrate (hydrolysis of ATP analog)
# Procedure, shortened: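 Reactions ran 20 min at 37 °C, pH 8.5 Tris buffer with NaCl, CaCl2, ZnCl2, using 300 µM AMP-pNP and 60 ng/well recombinant human ENPP1; inhibitor range 10 µM–30 pM, duplicates.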
# ENPP1 [5] = target: T1, ENPP1; experiment: Substrate selectivity ratio, inhibition of cGAMP hydrolysis versus ATP hydrolysis; settings: ratio Ki AMP-pNP / Ki cGAMP
# Experimental: The selectivity ratios for inhibition of cGAMP hydrolysis versus ATP hydrolysis were then calculated as follows: […]
# [6] = cGAMP substrate, Ki from IC50 by Cheng-Prusoff, read-out: ENPP1 Inhibition -cGAMP: Ki
# [7] = AMP-pNP substrate (ATP analog), Ki from IC50 by Cheng-Prusoff, read-out: ENPP1 Inhibition _AMP-pNP: Ki
Ki (ENPP1 [2]; [6]) [nM],SMILES,inhibition at 1 µM (ENPP1 [1]) [%],also measured
> 1000,"COc1cc(C(=O)N2CCC(CCNS(N)(=O)=O)CC2)c(N(C)C)cc1OC [Example 45, N-(2-(1-(2-(dimethylamino)-4,5-dimethoxybenzoyl)piperidin-4-yl)ethyl)sulfamide]",–,"inhibition at 1 µM (ENPP1 [1]; 1 µM compound, cGAMP substrate): < 25%"
< 100,"COc1ccc2c(Oc3ccc4c(c3)CCCN4S(N)(=O)=O)ccnc2c1 [Example 319, 6-((7-methoxyquinolin-4-yl)oxy)-3,4-dihydroquinoline-1(2H)-sulfonamide]",–,Ki (ENPP1 [4]; [7]): > 1000 nM; Substrate Selectivity: Ki_AMP-pNP/Ki_cGAMP (ENPP1 [5]): >35.9
100 to 1000,"COc1cc2ncnc(N3CCC(NS(N)(=O)=O)CC3)c2cc1OC [Example 51, N-(1-(6,7-dimethoxyquinazolin-4-yl)piperidin-4-yl)sulfamide]",–,"inhibition at 1 µM (ENPP1 [1]; 1 µM compound, cGAMP substrate): > 75%; Ki (ENPP1 [1]; cGAMP substrate, Ki from IC50 by Cheng-Prusoff, read-out: cGAMP: Ki): 100 to 1000 nM"
100 to 1000,"COc1ccc2c(-c3ccc(CNS(N)(=O)=O)c(OC)c3)ccnc2c1 [Example 373, N-(2-methoxy-4-(7-methoxyquinolin-4-yl)benzyl)sulfamide]",–,Ki (ENPP1 [4]; [7]): > 1000 nM; Substrate Selectivity: Ki_AMP-pNP/Ki_cGAMP (ENPP1 [5]): >136
< 100,"COc1cc2nccc(Nc3ccc(NS(=O)(=O)c4ccccc4)cc3)c2cc1OC [Example 153, N-(4-((6,7-dimethoxyquinolin-4-yl)amino)phenyl)benzenesulfonamide]",–,Ki (ENPP1 [4]; [7]): > 1000 nM; Substrate Selectivity: Ki_AMP-pNP/Ki_cGAMP (ENPP1 [5]): 62.9
< 100,"COc1cc2ncnc(NCc3ccc(S(N)(=O)=O)cc3)c2cc1OC [Example 182, 4-(((6,7-dimethoxyquinazolin-4-yl)amino)methyl)benzene sulfonamide]",–,Ki (ENPP1 [4]; [7]): 100 to 1000 nM; Substrate Selectivity: Ki_AMP-pNP/Ki_cGAMP (ENPP1 [5]): 24.7

# The next lines start with the molecule.
SMILES,Ki (ENPP1 [2]; [6]) [nM],inhibition at 1 µM (ENPP1 [1]) [%],also measured
"COc1cc(N)c(C(=O)N2CCC(CCNS(N)(=O)=O)CC2)cc1OC [Example 46, N-(2-(1-(2-amino-4,5-dimethoxybenzoyl)piperidin-4-yl)ethyl)sulfamide]",> 1000,–,"inhibition at 1 µM (ENPP1 [1]; 1 µM compound, cGAMP substrate): < 25%"
"NS(=O)(=O)NCCC1CCN(c2ccncn2)CC1 [Example 18, N-(2-(1-(pyrimidin-4-yl)piperidin-4-yl)ethyl)sulfamide]",> 1000,–,inhibition at 10 µM (ENPP1 [3]): < 25%
"NS(=O)(=O)NCCC1CCN(c2ncnc3c2cnn3-c2ccccc2)CC1 [Example 26, N-(2-(1-(1-phenyl-1H-pyrazolo[3,4-d]pyrimidin-4-yl)piperidin-4-yl)ethyl)sulfamide]",> 1000,< 25,–
"NS(=O)(=O)NCCC1CCN(c2cc(-c3ccc4ncoc4c3)ncn2)CC1 [Example 9, N-(2-(1-(6-(benzo[d]oxazol-6-yl)pyrimidin-4-yl)piperidin-4-yl)ethyl)sulfamide]",> 1000,< 25,–
"COc1cc2ccnc(N3CCC(CCNS(N)(=O)=O)CC3)c2cc1OC [Example 21, N-{2-[1-(6,7-dimethoxyisoquinolin-1-yl)piperidin-4-yl]ethyl}aminosulfonamide]",> 1000,25 to 50,–
"NS(=O)(=O)NCCC1CCN(c2ccnc(Nc3ccccn3)n2)CC1 [Example 11, N-(2-(1-(2-(pyridin-2-ylamino)pyrimidin-4-yl)piperidin-4-yl)ethyl)sulfamide]",–,< 25,Ki (ENPP1 [4]): > 1000 nM; Ki (ENPP1 [2]): > 1000 nM
"COc1cc2ncnc(N3CCN(CCNS(N)(=O)=O)CC3)c2cc1OC [Example 40, N-(2-(4-(6,7-dimethoxyquinazolin-4-yl)piperazin-1-yl)ethyl)sulfamide]",–,> 75,Ki (ENPP1 [4]): 100 to 1000 nM; Substrate Selectivity: Ki_AMP-pNP/Ki_cGAMP (ENPP1 [5]): 24.1; Ki (ENPP1 [2]): < 100 nM
"Cn1cnc2c(N3CCC(CCNS(N)(=O)=O)CC3)ncnc21 [Example 24, N-(2-(1-(9-methyl-9H-purin-6-yl)piperidin-4-yl)ethyl)sulfamide]",> 1000,–,inhibition at 10 µM (ENPP1 [3]): < 25%
"NS(=O)(=O)NCCC1CCN(c2ccnc(Nc3ccncc3)n2)CC1 [Example 13, N-(2-(1-(2-(pyridin-4-ylamino)pyrimidin-4-yl)piperidin-4-yl)ethyl)sulfamide]",> 1000,25 to 50,–
"COc1cccc(C(=O)N2CCC(CCNS(N)(=O)=O)CC2)c1 [Example 48, N-(2-(1-(3-methoxybenzoyl)piperidin-4-yl)ethyl)sulfamide]",> 1000,–,"inhibition at 1 µM (ENPP1 [1]; 1 µM compound, cGAMP substrate): 25 to 50%"
"NS(=O)(=O)NCCC1CCN(c2ccnc(Nc3cccnc3)n2)CC1 [Example 12, N-(2-(1-(2-(pyridin-3-ylamino)pyrimidin-4-yl)piperidin-4-yl)ethyl)sulfamide]",> 1000,< 25,–
"COc1ccc(C(=O)N2CCC(CCNS(N)(=O)=O)CC2)cc1 [Example 49, N-(2-(1-(4-methoxybenzoyl)piperidin-4-yl)ethyl)sulfamide]",> 1000,–,"inhibition at 1 µM (ENPP1 [1]; 1 µM compound, cGAMP substrate): 25 to 50%"
"NS(=O)(=O)NCCC1CCN(c2ccnc(-c3cccnc3)n2)CC1 [Example 14, N-(2-(1-(2-(pyridin-3-yl)pyrimidin-4-yl)piperidin-4-yl)ethyl)sulfamide]",> 1000,–,"inhibition at 1 µM (ENPP1 [1]; 1 µM compound, cGAMP substrate): < 25%"
"NS(=O)(=O)NCCC1CCN(c2ccnc(NC(=O)c3cccnc3)n2)CC1 [Example 7, N-(4-(4-(2-(sulfamoylamino)ethyl)piperidin-1-yl)pyrimidin-2-yl)nicotinamide]",> 1000,< 25,–
"COc1nc2ncnc(N3CCC(CCNS(N)(=O)=O)CC3)c2n1C [Example 218, N-(2-(1-(8-methoxy-7-methyl-7H-purin-6-yl)piperidin-4-yl)ethyl)sulfamide]",100 to 1000,–,Ki (ENPP1 [4]; [7]): > 1000 nM; Substrate Selectivity: Ki_AMP-pNP/Ki_cGAMP (ENPP1 [5]): >42.9
